# Data reported in paper PMC3802547 (Molecular bioSystems, 2011).
# Target: LasB (elastase) (Pseudomonas aeruginosa, UniProt P14756)
# Assay: BODIPY-FL casein fluorescence protease assay with purified LasB
# Assay type: biochemical
# Chain of LasB (elastase) (P14756 198-498): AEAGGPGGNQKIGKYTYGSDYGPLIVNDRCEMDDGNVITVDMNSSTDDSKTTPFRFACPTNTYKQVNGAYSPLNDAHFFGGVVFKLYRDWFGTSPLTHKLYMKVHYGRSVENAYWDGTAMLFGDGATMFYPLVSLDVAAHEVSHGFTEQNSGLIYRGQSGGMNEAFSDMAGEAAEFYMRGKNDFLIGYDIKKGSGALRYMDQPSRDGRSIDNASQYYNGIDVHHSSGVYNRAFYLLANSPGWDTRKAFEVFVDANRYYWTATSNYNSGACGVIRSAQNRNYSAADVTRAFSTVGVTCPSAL
smiles,measurement,value
"CCCCCCC[C@@H]1C[C@H]1CCC(=O)O [compound 4, lyngbyoic acid]",Ki,5.4 µM
